The source of these data is patent US11040035B2, “3-oxo-2,6-diphenyl-2,3-dihydropyridazine-4-carboxamides” (BAYER PHARMA AKTIENGESELLSCHAFT, priority 2016, dated 2021).

Assay [1] deals with T1, AHR (Homo sapiens, UniProt P35869).
T1 sequence (P35869 11-848): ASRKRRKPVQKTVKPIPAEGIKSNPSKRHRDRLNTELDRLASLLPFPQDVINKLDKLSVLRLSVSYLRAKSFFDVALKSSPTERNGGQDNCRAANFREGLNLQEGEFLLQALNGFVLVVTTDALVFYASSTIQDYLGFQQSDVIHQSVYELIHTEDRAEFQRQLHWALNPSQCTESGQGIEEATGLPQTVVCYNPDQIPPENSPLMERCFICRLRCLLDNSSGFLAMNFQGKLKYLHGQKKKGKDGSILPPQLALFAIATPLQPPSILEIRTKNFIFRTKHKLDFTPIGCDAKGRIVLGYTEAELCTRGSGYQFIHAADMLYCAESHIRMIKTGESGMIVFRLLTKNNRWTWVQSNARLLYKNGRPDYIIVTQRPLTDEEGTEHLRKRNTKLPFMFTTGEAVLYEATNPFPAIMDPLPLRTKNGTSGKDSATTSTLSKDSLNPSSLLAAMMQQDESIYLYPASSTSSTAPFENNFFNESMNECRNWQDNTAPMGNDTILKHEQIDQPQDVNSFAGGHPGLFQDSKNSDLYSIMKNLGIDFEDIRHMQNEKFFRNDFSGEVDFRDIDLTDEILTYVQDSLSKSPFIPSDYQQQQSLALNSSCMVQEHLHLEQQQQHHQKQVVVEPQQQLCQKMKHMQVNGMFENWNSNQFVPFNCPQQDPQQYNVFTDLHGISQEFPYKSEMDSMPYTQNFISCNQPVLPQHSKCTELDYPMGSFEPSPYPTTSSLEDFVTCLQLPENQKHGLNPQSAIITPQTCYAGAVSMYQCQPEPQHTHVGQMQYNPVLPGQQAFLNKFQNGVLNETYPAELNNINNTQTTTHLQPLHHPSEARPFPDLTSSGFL
The assay is described as follows: In vitro assay 1: antagonism in human cell line (transactivation assay, kynurenic acid prestimulated). Conditions: Assay 1: AHR-luc Hum Antagonism IC50 [M], 150 μM kynurenic acid, 20 hours, firefly luciferase.

The target in assay [2] is T1, AHR. Description: In vitro assay 2: agonism in human cell line (transactivation assay). Conditions: Assay 2: AHR-luc Hum Agonism IC50 [M], no kynurenic acid, 20 hours, firefly luciferase.
Assay [3] concerns AHR-regulated gene CYP1A1. Description: In vitro assay 3: AHR-regulated CYP1A1 expression in human cell line (U937, qPCR). To be noted: Homo sapiens, U-937, 6 h, read-out: Assay 3: Hum CYP1A1 Antagonism IC50 [M], U937 cells, 200 μM KA, 6 hours, qPCR.

By IC50 is commonly meant the midpoint of a concentration-inhibition curve. For the molecule `Cc1ccc(-c2cc(C(=O)N[C@H](CO)C(C)C)c(=O)n(-c3cccc(F)c3)n2)cc1` [Example 2, 2-(3-Fluorophenyl)-N-[(2S)-1-hydroxy-3-methylbutan-2-yl]-6-(4-methylphenyl)-3-oxo-2,3-dihydropyridazine-4-carboxamide], the values for the concentration for half-maximal inhibition (IC50) in assay [1], in assay [2] and in assay [3] were 1.03e-08 M, over 2e-05 M and 1.36e-08 M, respectively.
On the same counts, the results for `CC(C)[C@@H](CO)NC(=O)c1cc(-c2ccc(Cl)cc2)nn(-c2cccc(F)c2)c1=O` [Example 20, 6-(4-Chlorophenyl)-2-(3-fluorophenyl)-N-[(2S)-1-hydroxy-3-methylbutan-2-yl]-3-oxo-2,3-dihydropyridazine-4-carboxamide] are 1.18e-08 M, over 2e-05 M and 1.22e-08 M.
In the case of `O=C(NCC(O)C(F)(F)F)c1cc(-c2ccc(Cl)cc2)nn(-c2cccc(F)c2)c1=O` (stereo not drawn) [Example 25, 6-(4-Chlorophenyl)-2-(3-fluorophenyl)-3-oxo-N-(3,3,3-trifluoro-2-hydroxypropyl)-2,3-dihydropyridazine-4-carboxamide], the half-maximal inhibitory concentration (IC50) in assay [1] was 3.75e-08 M; in assay [2], over 2e-05 M; in assay [3], 5.86e-08 M.
Consider `CC(C)C[C@@H](CO)NC(=O)c1cc(-c2ccc(Cl)cc2)nn(-c2cccc(F)c2)c1=O` [Example 37, 6-(4-Chlorophenyl)-2-(3-fluorophenyl)-N-[(2S)-1-hydroxy-4-methylpentan-2-yl]-3-oxo-2,3-dihydropyridazine-4-carboxamide], for which the half-inhibitory concentration (IC50) in assay [1] is 1.31e-07 M; in assay [2], over 2e-05 M; in assay [3], 1.56e-07 M.
As to `CC(C)[C@@H](CO)NC(=O)c1cc(-c2ccc(Cl)cc2)nn(-c2cc(F)cc(F)c2)c1=O` [Example 43, 6-(4-Chlorophenyl)-2-(3,5-difluorophenyl)-N-[(2S)-1-hydroxy-3-methylbutan-2-yl]-3-oxo-2,3-dihydropyridazine-4-carboxamide], the IC50 was 4.89e-09 M in assay [1], over 2e-05 M in assay [2] and 1.08e-08 M in assay [3].
`C[C@@H](CO)NC(=O)c1cc(-c2ccc(Cl)cc2)nn(-c2cc(F)cc(F)c2)c1=O` [Example 47, 6-(4-Chlorophenyl)-2-(3,5-difluorophenyl)-N-[(2S)-1-hydroxypropan-2-yl]-3-oxo-2,3-dihydropyridazine-4-carboxamide]: the IC50 in assay [1] was 3.08e-08 M; in assay [2] it was over 2e-05 M; in assay [3], 2.52e-08 M.
Regarding `Cc1ccc(-c2cc(C(=O)N[C@H](CO)C(C)C)c(=O)n(-c3cc(F)cc(F)c3)n2)cc1` [Example 51, 2-(3,5-Difluorophenyl)-N-[(2S)-1-hydroxy-3-methylbutan-2-yl]-6-(4-methylphenyl)-3-oxo-2,3-dihydropyridazine-4-carboxamide], the 50% inhibitory concentration (IC50) in assay [1] was 4.16e-09 M; in assay [2], over 2e-05 M; in assay [3], 1.15e-09 M.
In the same order, the values of `Cc1ccc(-c2cc(C(=O)N[C@@H](C)CO)c(=O)n(-c3cc(F)cc(F)c3)n2)cc1` [Example 55, 2-(3,5-Difluorophenyl)-N-[(2S)-1-hydroxypropan-2-yl]-6-(4-methylphenyl)-3-oxo-2,3-dihydropyridazine-4-carboxamide] are 1.8e-08 M, over 2e-05 M and 1.54e-08 M.
`O=C(NC(CO)C(F)(F)F)c1cc(-c2ccc(Cl)cc2)nn(-c2cccc(F)c2)c1=O` (stereo not drawn) [Example 97, 6-(4-Chlorophenyl)-2-(3-fluorophenyl)-3-oxo-N-(1,1,1-trifluoro-3-hydroxypropan-2-yl)-2,3-dihydropyridazine-4-carboxamide]: the values for the concentration for half-maximal inhibition (IC50) in assay [1], in assay [2] and in assay [3] were 1.5e-08 M, over 2e-05 M and 1.63e-08 M, respectively.
As for `O=C(N[C@H]1CCC[C@H]1O)c1cc(-c2ccc(Cl)cc2)nn(-c2cccc(F)c2)c1=O` [Example 111, 6-(4-Chlorophenyl)-2-(3-fluorophenyl)-N-[(1S,2R)-2-hydroxycyclopentyl]-3-oxo-2,3-dihydropyridazine-4-carboxamide], the IC50 in assay [1] was 2.03e-08 M; in assay [2] it was over 2e-05 M; in assay [3], 2.91e-08 M.
